The values that follow come from the Kinase Knowledgebase extract (Sharma et al. 2016).

As usually defined, the IC50 is the concentration that inhibits the measured activity by half. A lower IC50 goes with higher potency.

SMILES strings stand for the structures. Where “and” joins values, the source holds several entries; their conditions need not be identical. Identical values can stand only once.

For experiment [1], the target named is EGFR (UniProt P00533).
Experiment [2] deals with EGFR (UniProt P00533). This is another data set of the same source.
The target of experiment [3] is EGFR (UniProt P00533). This is another data set of the same source.
Another experiment addresses CDK2 (UniProt P24941). The experiment is described as follows: Enzyme Assay.
A further experiment deals with EGFR (mouse) (UniProt P00533). To be noted: nih3t3.

Sequence of EGFR (P00533 whole entry, looked up): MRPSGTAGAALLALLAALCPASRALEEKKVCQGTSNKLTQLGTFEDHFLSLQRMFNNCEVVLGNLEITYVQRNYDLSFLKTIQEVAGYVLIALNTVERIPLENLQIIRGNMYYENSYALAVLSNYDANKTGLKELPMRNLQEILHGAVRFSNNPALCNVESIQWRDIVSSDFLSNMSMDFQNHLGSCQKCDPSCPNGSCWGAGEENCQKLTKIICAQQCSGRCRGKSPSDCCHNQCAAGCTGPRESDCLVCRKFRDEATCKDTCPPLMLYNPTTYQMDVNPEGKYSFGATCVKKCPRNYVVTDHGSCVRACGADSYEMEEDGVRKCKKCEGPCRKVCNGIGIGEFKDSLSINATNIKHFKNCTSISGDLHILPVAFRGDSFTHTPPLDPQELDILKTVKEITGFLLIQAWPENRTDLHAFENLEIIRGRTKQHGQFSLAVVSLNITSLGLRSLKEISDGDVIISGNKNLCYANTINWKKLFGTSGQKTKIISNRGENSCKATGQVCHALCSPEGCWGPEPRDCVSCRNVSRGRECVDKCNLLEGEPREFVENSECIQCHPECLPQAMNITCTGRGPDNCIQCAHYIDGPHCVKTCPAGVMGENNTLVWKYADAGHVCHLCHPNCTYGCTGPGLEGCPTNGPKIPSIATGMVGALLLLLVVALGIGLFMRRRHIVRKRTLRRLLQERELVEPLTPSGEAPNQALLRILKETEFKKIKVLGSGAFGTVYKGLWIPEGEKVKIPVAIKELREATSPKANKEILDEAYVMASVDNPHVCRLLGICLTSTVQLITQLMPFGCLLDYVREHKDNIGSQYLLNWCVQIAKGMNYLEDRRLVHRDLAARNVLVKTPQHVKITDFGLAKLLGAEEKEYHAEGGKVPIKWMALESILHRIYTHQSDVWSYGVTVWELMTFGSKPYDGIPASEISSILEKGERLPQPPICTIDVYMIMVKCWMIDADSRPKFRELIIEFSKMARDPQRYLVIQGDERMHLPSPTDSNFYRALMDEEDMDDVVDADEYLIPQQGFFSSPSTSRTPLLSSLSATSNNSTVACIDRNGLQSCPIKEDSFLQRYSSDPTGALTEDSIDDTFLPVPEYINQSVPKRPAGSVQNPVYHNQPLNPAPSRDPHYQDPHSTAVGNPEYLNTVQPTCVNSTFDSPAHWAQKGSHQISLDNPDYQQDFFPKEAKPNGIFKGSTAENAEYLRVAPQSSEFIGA

Take `CCOc1cccc(-c2ccc3c(c2)NC(=O)/C3=C\c2[nH]c(CC)cc2CC)c1`: the IC50 was more than 50 µM against EGFR [1], more than 100 µM against EGFR [2] and more than 100 µM on EGFR [3].
Regarding `CCc1cc(CC)c(/C=C2\C(=O)Nc3cc(-c4ccccc4)ccc32)[nH]1`, the IC50 is more than 50 µM against EGFR [1], more than 100 µM against EGFR [2] and more than 100 µM against EGFR [3].
For the compound `Cc1cc(C)c(/C=C2\C(=O)Nc3cc(-c4ccccc4)ccc32)[nH]1`, the IC50 is more than 50 µM against EGFR [1], more than 100 µM on EGFR [2] and more than 100 µM against EGFR [3].
As for `COc1ccc(-c2ccc3c(c2)NC(=O)/C3=C\c2[nH]c3c(c2C)CCCC3)cc1`, the results for the IC50 against EGFR [1], on EGFR [2] and at EGFR [3] were more than 50 µM, more than 100 µM and more than 100 µM, respectively.
`COc1cccc(-c2ccc3c(c2)NC(=O)/C3=C\c2[nH]c3c(c2CCC(=O)O)CCCC3)c1`: the IC50 against EGFR [1] was 37.1 µM; on EGFR [2], 11.4 µM; on EGFR [3], more than 100 µM.
On to `CCc1cc(CC)c(/C=C2\C(=O)Nc3cc(-c4cccc(OC)c4)ccc32)[nH]1`, for which the IC50 against EGFR [1] was > 50 µM and 30.9 µM; at EGFR [2], more than 100 µM; against EGFR [3], more than 100 µM.
As for `COc1ccccc1-c1ccc2c(c1)NC(=O)/C2=C\c1cc2c([nH]1)CCCC2`, the results for the half-maximal inhibitory concentration (IC50) against EGFR [1], on EGFR [2] and on EGFR [3] were 34.1 µM, more than 100 µM and more than 100 µM, respectively.
Consider `O=C1Nc2cc(-c3ccccc3)ccc2/C1=C/c1cnc[nH]1`, for which the 50% inhibitory concentration (IC50) against EGFR [1] was more than 50 µM; on EGFR [2], more than 100 µM; against EGFR [3], more than 100 µM.
`COc1cccc(-c2ccc3c(c2)NC(=O)/C3=C\c2[nH]c(C)cc2C)c1`: the half-inhibitory concentration (IC50) against EGFR [1] is > 50 µM and 27.3 µM; on EGFR [2] it was more than 100 µM; against EGFR [3], more than 100 µM.
At CDK2, `O=C1Nc2c(Br)cc(Cl)cc2/C1=C\c1c[nH]cn1` had a 50% inhibitory concentration (IC50) of 9.3 µM.
Take `COc1ccc(-c2ccc3c(c2)NC(=O)/C3=C\c2ccc(C)s2)cc1`: the IC50 on EGFR [1] is more than 50 µM; against EGFR [2], more than 100 µM; against EGFR [3], more than 100 µM.
Compound `O=C1Nc2ccc([N+](=O)[O-])cc2/C1=C\c1c[nH]cn1` displayed an IC50 against CDK2 of less than 0.78 µM.
In the case of `COc1cccc(-c2ccc3c(c2)NC(=O)/C3=C\c2cc(C(C)C)c(OC)c(C(C)C)c2)c1`, the IC50 at EGFR [1] is 13.7 µM; against EGFR [2], more than 100 µM; on EGFR [3], more than 100 µM.
`CCOc1cccc(-c2ccc3c(c2)NC(=O)/C3=C\c2cnc[nH]2)c1`: the IC50 was more than 50 µM at EGFR [1], more than 100 µM against EGFR [2] and more than 100 µM against EGFR [3].
`Cc1cc(C)c2c(c1)NC(=O)/C2=C/c1c[nH]cn1` displayed an IC50 at CDK2 of less than 0.78 µM.
Turning to `COc1cccc(-c2ccc3c(c2)NC(=O)/C3=C\c2ccc(N3CCN(C=O)CC3)cc2)c1`, the IC50 against EGFR [1] is more than 50 µM; on EGFR [2] it was more than 100 µM; against EGFR [3], more than 100 µM.
Take `COc1ccc(-c2ccc3c(c2)NC(=O)/C3=C\c2[nH]c(C)cc2C)cc1`: the half-inhibitory concentration (IC50) on EGFR [1] was more than 50 µM; on EGFR [2], more than 100 µM; on EGFR [3], more than 100 µM.
Turning to `COc1ccc(-c2ccc3c(c2)NC(=O)/C3=C\c2cc3c([nH]2)CCCC3)cc1`, the IC50 against EGFR [1] is more than 50 µM; against EGFR [2], more than 100 µM; against EGFR [3] it was more than 100 µM.
With `COc1ccccc1-c1ccc2c(c1)NC(=O)/C2=C\c1[nH]c2c(c1C)CCCC2`, the results for the IC50 against EGFR [1], against EGFR [2] and against EGFR [3] were more than 50 µM, more than 100 µM and more than 100 µM, respectively.
In the case of `COc1cccc(-c2ccc3c(c2)NC(=O)/C3=C\c2cnc[nH]2)c1`, the IC50 was > 50 µM and 27.4 µM against EGFR [1]; more than 100 µM against EGFR [2]; more than 100 µM at EGFR [3].
In the case of `CCc1cc(CC)c(/C=C2\C(=O)Nc3cc(-c4ccc(OC)cc4)ccc32)[nH]1`, the half-inhibitory concentration (IC50) against EGFR [1] was more than 50 µM; against EGFR [2], more than 100 µM; at EGFR [3], more than 100 µM.
`O=C1Nc2ccc(F)cc2/C1=C\c1c[nH]cn1` came in with an IC50 on CDK2 of 7.7 µM.
For `CCOc1cccc(-c2ccc3c(c2)NC(=O)/C3=C\c2[nH]c(C)cc2C)c1`, the concentration for half-maximal inhibition (IC50) was more than 50 µM against EGFR [1], more than 100 µM against EGFR [2] and more than 100 µM against EGFR [3].
For `Cc1ccc(/C=C2\C(=O)Nc3cc(-c4ccccc4)ccc32)s1`, the results for the IC50 against EGFR [1], on EGFR [2] and against EGFR [3] were more than 50 µM, more than 100 µM and more than 100 µM, respectively.
For the compound `COc1cccc(-c2ccc3c(c2)NC(=O)/C3=C\c2[nH]c3c(c2C)CCCC3)c1`, the IC50 is more than 50 µM against EGFR [1], more than 100 µM against EGFR [2] and more than 100 µM against EGFR [3].
As to `O=C1Nc2ccc(Cl)cc2/C1=C\c1c[nH]cn1`, the IC50 on CDK2 was less than 0.78 µM.
As for `Cc1cc(/C=C2/C(=O)Nc3ccccc32)c(C)c2c1[nH]c1ccccc12`, the 50% inhibitory concentration (IC50) is 7.03 µM against EGFR [1] and more than 100 µM with EGFR (mouse).
Consider `COc1ccc(-c2ccc3c(c2)NC(=O)/C3=C\c2[nH]c3c(c2CCC(=O)O)CCCC3)cc1`, for which the IC50 against EGFR [2] and at EGFR [3] was more than 100 µM each time.
`CCOc1cccc(-c2ccc3c(c2)NC(=O)/C3=C\c2cc3c([nH]2)CCCC3)c1`: the 50% inhibitory concentration (IC50) at EGFR [1] is more than 50 µM; on EGFR [2] it was more than 100 µM; at EGFR [3] it was more than 100 µM.
In the case of `COc1ccc(-c2ccc3c(c2)NC(=O)/C3=C\c2cnc[nH]2)cc1`, the 50% inhibitory concentration (IC50) was more than 50 µM against EGFR [1], more than 100 µM at EGFR [2] and more than 100 µM at EGFR [3].
`O=C1Nc2ccccc2/C1=C\c1c[nH]cn1`: on CDK2, the IC50 is less than 0.78 µM.
As to `O=C1Nc2cc(-c3ccccc3)ccc2/C1=C/c1cc2c([nH]1)CCCC2`, the concentration for half-maximal inhibition (IC50) was more than 50 µM on EGFR [1], more than 100 µM on EGFR [2] and more than 100 µM against EGFR [3].
At CDK2, `COc1cc2c(cc1OC)/C(=C\c1c[nH]cn1)C(=O)N2` came in with an IC50 of 2.4 µM.
Regarding `COc1ccccc1-c1ccc2c(c1)NC(=O)/C2=C\c1cnc[nH]1`, the IC50 against EGFR [2] and against EGFR [3] was more than 100 µM in each case.
For the compound `CCOc1cccc(-c2ccc3c(c2)NC(=O)/C3=C\c2ccc(C)s2)c1`, the half-inhibitory concentration (IC50) is more than 50 µM at EGFR [1], more than 100 µM against EGFR [2] and more than 100 µM against EGFR [3].
`Nc1ccc2c(c1)/C(=C\c1c[nH]cn1)C(=O)N2` showed an IC50 at CDK2 of less than 0.78 µM.
Same read-out and setting: under `Cc1cccc2c1/C(=C\c1c[nH]cn1)C(=O)N2` stands 1.1 µM.
Turning to `CCOc1cccc(-c2ccc3c(c2)NC(=O)/C3=C\c2cc(C(C)C)c(OC)c(C(C)C)c2)c1`, the half-inhibitory concentration (IC50) against EGFR [1] was 19.6 µM; against EGFR [2] it was more than 100 µM; against EGFR [3] it was more than 100 µM.
On to `O=C(O)CCc1c(/C=C2\C(=O)Nc3cc(-c4ccccc4)ccc32)[nH]c2c1CCCC2`, for which the IC50 against EGFR [2] and at EGFR [3] was more than 100 µM in each case.
